Data taken from patent US20100093702A1, “METHYLENE AMINES OF THIENO[2,3-d]PYRIMIDINE AND THEIR USE AS ADENOSINE A2a RECEPTOR ANTAGONISTS” (priority 2008, published 2010).

Tests used:
[1] = biological target: T1, human adenosine A1 receptor (Homo sapiens, UniProt P30542); test: Adenosine A1 Receptor Functional Assay (A1GAL2); type: cell-based; conditions: CHO-K1 cells, cAMP inducible beta-galactosidase reporter, 4 nM r-PIA/1 uM Forskolin challenge
T1 construct: expressed in transfected cells; host or cells: CHO-K1
T1 sequence (P30542 1-326): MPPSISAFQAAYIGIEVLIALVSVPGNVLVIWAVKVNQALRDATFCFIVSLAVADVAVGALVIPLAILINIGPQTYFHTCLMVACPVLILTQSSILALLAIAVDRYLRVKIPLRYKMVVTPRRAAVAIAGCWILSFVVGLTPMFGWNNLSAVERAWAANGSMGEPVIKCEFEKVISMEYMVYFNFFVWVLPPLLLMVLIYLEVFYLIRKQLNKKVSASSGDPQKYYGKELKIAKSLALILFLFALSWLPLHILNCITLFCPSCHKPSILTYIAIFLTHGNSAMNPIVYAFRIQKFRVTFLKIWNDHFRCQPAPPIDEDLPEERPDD
Description: Adenosine A1 Receptor Functional Assay (A1GAL2)
To initiate the functional assay, cryopreserved CHO-K1 cells overexpressing the human adenosine A1 receptor and containing a cAMP inducible beta-galactosidase reporter gene were thawed, centrifuged, DMSO containing media removed, and then seeded with fresh culture media into clear 384-well tissue culture treated plates (BD #353961) at a concentration of 10K cells/well. Prior to assay, these plates were cultured for two days at 37° C., 5% CO2, 90% Rh. On the day of the functional assay, culture media was removed and replaced with 45 uL assay medium (Hams/F-12 Modified (Mediatech # 10-080CV) supplemented w/0.1% BSA). Test compounds were diluted and 11 point curves created at a 1000× concentration in 100% DMSO. Immediately after addition of assay media to the cell plates, […] of the appropriate test compound antagonist or agonist control curves were added to cell plates using a Cartesian Hummingbird. Compound curves were allowed to incubate at room temperature on cell plates for approximately 15 minutes before addition of a 4 nM r-PIA (Sigma P4532)/1 uM Forskolin (Sigma F3917) agonist challenge (5 uL volume). A control curve of r-PIA in 1 uM Forskolin, a DMSO/Media control, and a single dose of Forskolin were also included on each plate. After additions, cell plates were allowed to incubate at 37° C., 5% CO2, 90% Rh for 5.5-6 hours. After incubation, media was removed, and cell plates were washed 1×50 uL with DPBS w/o Ca & Mg (Mediatech 21-031-CV).
Into dry wells, 20 uL of 1× Reporter Lysis Buffer (Promega E3971 (diluted in dH2O from 5× stock)) was added to each well and plates frozen at −20° C. overnight. For β-galactosidase enzyme calorimetric assay, plates were thawed out at room temperature and 20 μL 2× assay buffer (Promega) was added to each well. Color was allowed to develop at 37° C., 5% CO2, 90% Rh for 1-1.5 h or until reasonable signal appeared. The calorimetric reaction was stopped with the addition of 60 μL/well 1M sodium carbonate. Plates were counted at 405 nm on a SpectraMax Microplate Reader (Molecular Devices). Data was analyzed in Microsoft Excel and IC/EC50 curves were fit using a standardized macro.

[2] = biological target: T2, human adenosine A2a receptor (Homo sapiens, UniProt P29274); test: Adenosine A2a Receptor Functional Assay (A2AGAL2); type: cell-based; conditions: CHO-K1 cells, cAMP inducible beta-galactosidase reporter, 15 nM NECA agonist challenge
T2 construct: expressed in transfected cells; host or cells: CHO-K1
Description: Adenosine A2a Receptor Functional Assay (A2AGAL2)
To initiate the functional assay, cryopreserved CHO-K1 cells overexpressing the human adenosine A2a receptor and containing a cAMP inducible beta-galactosidase reporter gene were thawed, centrifuged, DMSO containing media removed, and then seeded with fresh culture media into clear 384-well tissue culture treated plates (BD #353961) at a concentration of 10K cells/well. Prior to assay, these plates were cultured for two days at 37° C., 5% CO2, 90% Rh. On the day of the functional assay, culture media was removed and replaced with 45 uL assay medium (Hams/F-12 Modified (Mediatech # 10-080CV) supplemented w/0.1% BSA). Test compounds were diluted and 11 point curves created at a 1000× concentration in 100% DMSO. Immediately after addition of assay media to the cell plates, 50 nL of the appropriate test compound antagonist or agonist control curves were added to cell plates using a Cartesian Hummingbird. Compound curves were allowed to incubate at room temperature on cell plates for approximately 15 minutes before addition of a 15 nM NECA (Sigma E2387) agonist challenge (5 uL volume). A control curve of NECA, a DMSO/Media control, and a single dose of Forskolin (Sigma F3917) were also included on each plate. After additions, cell plates were allowed to incubate at 37° C., 5% CO2, 90% Rh for 5.5-6 hours. After incubation, media was removed, and cell plates were washed 1×50 uL with DPBS w/o Ca & Mg (Mediatech 21-031-CV). Into dry wells, 20 uL of 1× Reporter Lysis Buffer (Promega E3971 (diluted in dH2O from 5× stock)) was added to each well and plates frozen at −20° C. overnight. For β-galactosidase enzyme calorimetric assay, plates were thawed out at room temperature and 20 μL 2× assay buffer (Promega) was added to each well. Color was allowed to develop at 37° C., 5% CO2, 90% Rh for 1-1.5 h or until reasonable signal appeared. The calorimetric reaction was stopped with the addition of 60 μL/well 1M sodium carbonate. Plates were counted at 405 nm on a SpectraMax Microplate Reader (Molecular Devices). Data was analyzed in Microsoft Excel and IC/EC50 curves were fit using a standardized macro.

T2 sequence (P29274 whole entry): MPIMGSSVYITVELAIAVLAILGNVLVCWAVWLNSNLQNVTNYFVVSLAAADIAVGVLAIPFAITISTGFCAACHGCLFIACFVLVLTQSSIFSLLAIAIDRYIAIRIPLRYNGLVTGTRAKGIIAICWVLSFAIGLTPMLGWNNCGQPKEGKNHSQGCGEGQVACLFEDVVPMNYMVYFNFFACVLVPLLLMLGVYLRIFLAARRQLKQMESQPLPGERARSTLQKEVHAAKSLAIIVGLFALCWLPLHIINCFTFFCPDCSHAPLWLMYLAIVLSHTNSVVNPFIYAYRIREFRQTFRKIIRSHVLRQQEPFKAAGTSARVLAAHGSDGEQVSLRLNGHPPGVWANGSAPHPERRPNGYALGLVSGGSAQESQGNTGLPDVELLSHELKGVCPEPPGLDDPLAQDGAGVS

| Compound | Ki [1] [nM] | Ki [2] [nM] |
| --- | --- | --- |
| CCc1ccc(-c2nc(N)c3cc(CN4CCOCC4)sc3n2)o1 [Example 8, 2-(5-Ethyl-furan-2-yl)-6-morpholin-4-ylmethyl-thieno[2,3-d]pyrimidin-4-ylamine] | > 610 | 78.2 |
| Cc1csc(-c2nc(N)c3cc(CN4[C@H](C)CCC[C@@H]4C)sc3n2)n1 [Example 9, 6-(2,6-Dimethyl-piperidin-1-ylmethyl)-2-(4-methyl-thiazol-2-yl)-thieno[2,3-d]pyrimidin-4-ylamine] | 297 | 89.4 |
| CCc1ccc(-c2nc(N)c3cc(CN4[C@H](C)CCC[C@@H]4C)sc3n2)o1 [Example 11, 6-(2,6-Dimethyl-piperidin-1-ylmethyl)-2-(5-ethyl-furan-2-yl)-thieno[2,3-d]pyrimidin-4-ylamine] | 194 | 24.9 |
| C[C@@H]1CCC[C@H](C)N1Cc1cc2c(N)nc(-c3ccc(C4CC4)o3)nc2s1 [Example 12, 2-(5-Cyclopropyl-furan-2-yl)-6-(2,6-dimethyl-piperidin-1-ylmethyl)-thieno[2,3-d]pyrimidin-4-ylamine] | 333 | 114 |
| C[C@@H]1CCC[C@H](C)N1Cc1cc2c(N)nc(-c3ccc(C(C)(C)C)s3)nc2s1 [Example 13, 2-(5-tert-Butyl-thiophen-2-yl)-6-(2,6-dimethyl-piperidin-1-ylmethyl)-thieno[2,3-d]pyrimidin-4-ylamine] | > 927 | > 2340 |
| CC(C)(C)c1ccc(-c2nc(N)c3cc(CN4CCOCC4)sc3n2)s1 [Example 14, 2-(5-tert-Butyl-thiophen-2-yl)-6-morpholin-4-ylmethyl-thieno[2,3-d]pyrimidin-4-ylamine] | > 927 | > 2340 |
| Nc1nc(-c2ccon2)nc2sc(CN3CCOCC3)cc12 [Example 16, 2-Isoxazol-3-yl-6-morpholin-4-ylmethyl-thieno[2,3-d]pyrimidin-4-ylamine] | 678 | 1010 |
| C[C@@H]1CCC[C@H](C)N1Cc1cc2c(N)nc(-c3ccc(Br)o3)nc2s1 [Example 19, 2-(5-Bromo-furan-2-yl)-6-(2,6-dimethyl-piperidin-1-ylmethyl)-thieno[2,3-d]pyrimidin-4-ylamine] | 39.6 | 12 |
| CC(C)c1ccc(-c2nc(N)c3cc(CN4CCOCC4)sc3n2)o1 [Example 21, 2-(5-Isopropyl-furan-2-yl)-6-morpholin-4-ylmethyl-thieno[2,3-d]pyrimidin-4-ylamine] | > 594 | > 1360 |
| Nc1nc(-c2ccc(C3CC3)o2)nc2sc(CN3CCOCC3)cc12 [Example 22, 2-(5-Cyclopropyl-furan-2-yl)-6-morpholin-4-ylmethyl-thieno[2,3-d]pyrimidin-4-ylamine] | > 1070 | 958 |
| Nc1nc(-c2cc(F)cc(F)c2)nc2sc(CN3CCOCC3)cc12 [Example 47, 2-(3,5-Difluoro-phenyl)-6-morpholin-4-ylmethyl-thieno[2,3-d]pyrimidin-4-ylamine] | 2300 | 349 |
| Nc1nc(-c2cccc(Cl)c2)nc2sc(CN3CCOCC3)cc12 [Example 49, 2-(3-Chloro-phenyl)-6-morpholin-4-ylmethyl-thieno[2,3-d]pyrimidin-4-ylamine] | 785 | 117 |

The next lines start with the values.

| Ki [1] [nM] | Ki [2] [nM] | Compound |
| --- | --- | --- |
| 144 | 17.3 | CC(C)c1ccc(-c2nc(N)c3cc(CN4[C@H](C)CCC[C@@H]4C)sc3n2)o1 [Example 10, 6-(2,6-Dimethyl-piperidin-1-ylmethyl)-2-(5-isopropyl-furan-2-yl)-thieno[2,3-d]pyrimidin-4-ylamine] |
| > 927 | 208 | Cc1csc(-c2nc(N)c3cc(CN4CCOCC4)sc3n2)n1 [Example 15, 2-(4-Methyl-thiazol-2-yl)-6-morpholin-4-ylmethyl-thieno[2,3-d]pyrimidin-4-ylamine] |
| 1070 | 150 | C[C@@H]1CN(Cc2cc3c(N)nc(-c4cccc(C#N)c4)nc3s2)C[C@H](C)O1 [Example 17, 3-[4-Amino-6-(2,6-dimethyl-morpholin-4-ylmethyl)-thieno[2,3-d]pyrimidin-2-yl]-benzonitrile] |
| 504 | 130 | C[C@@H]1CCC[C@H](C)N1Cc1cc2c(N)nc(-c3ccon3)nc2s1 [Example 18, 6-(2,6-Dimethyl-piperidin-1-ylmethyl)-2-isoxazol-3-yl-thieno[2,3-d]pyrimidin-4-ylamine] |
| 762 | 154 | N#Cc1cccc(-c2nc(N)c3cc(CN4CCCC4c4ccccc4)sc3n2)c1 (stereo not drawn) [Example 20, 3-[4-Amino-6-(2-phenyl-pyrrolidin-1-ylmethyl)-thieno[2,3-d]pyrimidin-2-yl]-benzonitrile] |
| 464 | 64.5 | C[C@@H]1CCC[C@H](C)N1Cc1cc2c(N)nc(-c3cccc(C#N)c3)nc2s1 [Example 23, 3-[4-Amino-6-(2,6-dimethyl-piperidin-1-ylmethyl)-thieno[2,3-d]pyrimidin-2-yl]-benzonitrile] |
| 2730 | 245 | Nc1nc(-c2nccs2)nc2sc(CN3CCOCC3)cc12 [Example 25, 6-Morpholin-4-ylmethyl-2-thiazol-2-yl-thieno[2,3-d]pyrimidin-4-ylamine] |
| > 10000 | 404 | Nc1nc(C2CC2)nc2sc(CN3CCCC3)cc12 [Example 43, 2-Cyclopropyl-6-pyrrolidin-1-ylmethyl-thieno[2,3-d]pyrimidin-4-ylamine] |
| 855 | 733 | Nc1nc(-c2cccc(Cl)c2)nc2sc(CN3CCC(F)CC3)cc12 [Example 48, 2-(3-Chloro-phenyl)-6-(4-fluoro-piperidin-1-ylmethyl)-thieno[2,3-d]pyrimidin-4-ylamine] |
| 2890 | 361 | Nc1nc(-c2ccc(F)c(F)c2)nc2sc(CN3CCOCC3)cc12 [Example 50, 2-(3,4-Difluoro-phenyl)-6-morpholin-4-ylmethyl-thieno[2,3-d]pyrimidin-4-ylamine] |
| 3410 | 1060 | Nc1nc(-c2cc(F)cc(F)c2)nc2sc(CN3CCC(F)CC3)cc12 [Example 55, 2-(3,5-Difluoro-phenyl)-6-(4-fluoro-piperidin-1-ylmethyl)-thieno[2,3-d]pyrimidin-4-ylamine] |
| 331 | 73.6 | Nc1nc(-c2cccc(F)c2)nc2sc(CN3CCSCC3)cc12 [Example 58, 2-(3-Fluoro-phenyl)-6-thiomorpholin-4-ylmethyl-thieno[2,3-d]pyrimidin-4-ylamine] |
